Where two headings read alike, the source gives them in different places. *1 amine or outer side, *2 acyl side, *3 side chain or, on linkers, in order; H or OH if unused. Where a SMILES comes first, the peptide text is derived from it. Side-chain parts run from the residue outwards. [ ]: non-standard residue; d: D form. The star is where a group is joined. αMePhe(2-F) = C[C@](N)(Cc1ccccc1F)C(=O)O; γGlu = O=C(O)[C@H](CCC(=O)[*:2])N[*:1]; αMeY = C[C@](N)(Cc1ccc(O)cc1)C(=O)O; αMeF = C[C@](N)(Cc1ccccc1)C(=O)O; αMeL = CC(C)C[C@](C)(N)C(=O)O; Lauroyl = CCCCCCCCCCCC(=O)*; Orn = NCCC[C@H](N)C(=O)O; AEEA = NCCOCCOCC(=O)O; Aib = CC(C)(N)C(=O)O
How the values were obtained:
Assay type in all cases: cell-based
hGIPR = biological target: T1, hGIPR (Homo sapiens, UniProt P48546); assay: Functional cAMP formation (HTRF) in HEK-293 clonal cells expressing hGIPR, 0.1% bovine casein, without or with 1.0% human serum albumin; conditions: for EC50: 37° C., geometric mean
T1 construct: expressed in transfected cells
T1 sequence (P48546 22-466): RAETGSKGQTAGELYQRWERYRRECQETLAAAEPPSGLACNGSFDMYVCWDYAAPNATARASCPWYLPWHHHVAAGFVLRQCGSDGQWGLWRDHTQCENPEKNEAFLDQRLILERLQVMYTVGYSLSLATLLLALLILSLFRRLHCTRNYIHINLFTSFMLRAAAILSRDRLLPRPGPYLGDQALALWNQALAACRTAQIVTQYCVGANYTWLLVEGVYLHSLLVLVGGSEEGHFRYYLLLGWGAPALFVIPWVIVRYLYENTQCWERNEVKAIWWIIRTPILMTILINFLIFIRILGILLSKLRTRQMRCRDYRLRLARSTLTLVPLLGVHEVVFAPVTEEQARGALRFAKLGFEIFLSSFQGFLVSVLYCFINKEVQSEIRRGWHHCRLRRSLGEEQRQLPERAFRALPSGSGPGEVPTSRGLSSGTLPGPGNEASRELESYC
Summary of the method: (§1)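 Cells were stimulated with peptide for 30 min at 37° C, then lysed in buffer carrying cAMP-d2 and anti-cAMP Eu3+-cryptate for a competitive HTRF read after at least 60 min at room temperature. The 665/620 nm ratio was converted to nM cAMP against a standard curve.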

hGLP-1R = hGLP-1R (Homo sapiens, UniProt P43220); assay: Functional cAMP formation (HTRF) in HEK-293 clonal cells expressing hGLP-1R, 0.1% bovine casein, without or with 1.0% human serum albumin; set-up: expressed in transfected cells; conditions: 37° C., geometric mean
Chain of hGLP-1R (P43220 24-463): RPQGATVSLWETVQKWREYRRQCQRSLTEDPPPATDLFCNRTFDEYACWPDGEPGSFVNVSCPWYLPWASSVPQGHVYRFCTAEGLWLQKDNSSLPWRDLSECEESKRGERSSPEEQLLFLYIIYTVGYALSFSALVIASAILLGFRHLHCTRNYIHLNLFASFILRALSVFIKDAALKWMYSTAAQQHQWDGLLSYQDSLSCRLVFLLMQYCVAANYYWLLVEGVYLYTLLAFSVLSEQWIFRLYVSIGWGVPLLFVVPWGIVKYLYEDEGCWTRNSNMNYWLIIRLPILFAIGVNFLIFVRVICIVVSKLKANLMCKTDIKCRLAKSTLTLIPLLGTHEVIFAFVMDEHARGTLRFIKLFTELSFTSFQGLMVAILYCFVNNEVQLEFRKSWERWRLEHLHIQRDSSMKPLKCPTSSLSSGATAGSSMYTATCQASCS
Summary of the method: as §1

hGCGR = biological target: T2, hGCGR (Homo sapiens, UniProt P47871); assay: Functional cAMP formation (HTRF) in HEK-293 clonal cells expressing hGCGR, 0.1% bovine casein, without or with 1.0% human serum albumin; conditions: 37° C., geometric mean
T2 construct: expressed in transfected cells
T2 sequence (P47871 26-477): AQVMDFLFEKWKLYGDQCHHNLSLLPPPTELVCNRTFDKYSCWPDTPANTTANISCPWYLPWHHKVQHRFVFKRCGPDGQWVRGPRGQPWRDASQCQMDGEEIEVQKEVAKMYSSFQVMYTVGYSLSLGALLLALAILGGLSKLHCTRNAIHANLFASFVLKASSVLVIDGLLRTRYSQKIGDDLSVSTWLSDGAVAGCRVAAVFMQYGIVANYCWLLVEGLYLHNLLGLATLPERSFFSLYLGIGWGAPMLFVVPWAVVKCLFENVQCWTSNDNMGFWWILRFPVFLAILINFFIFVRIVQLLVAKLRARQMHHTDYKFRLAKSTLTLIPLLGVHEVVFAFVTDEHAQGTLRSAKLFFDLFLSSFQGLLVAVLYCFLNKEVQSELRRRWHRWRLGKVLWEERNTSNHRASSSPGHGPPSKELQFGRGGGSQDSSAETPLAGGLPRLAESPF
Summary of the method: as §1

EC50 (hGIPR; 0.1% bovine casein and 1.0% human serum albumin, read-out: hGIPR EC50, nM (SEM, n)) [nM]	EC50 (hGIPR; cAMP, 0.1% bovine casein (no human serum albumin), read-out: hGIPR EC50, nM (SEM, n)) [nM]	EC50 (hGLP-1R; 0.1% bovine casein and 1.0% human serum albumin, read-out: hGLP-1R EC50, nM (SEM, n)) [nM]	EC50 (hGLP-1R; cAMP, 0.1% bovine casein (no human serum albumin), read-out: hGLP-1R EC50, nM (SEM, n)) [nM]	EC50 (hGCGR; 0.1% bovine casein and 1.0% human serum albumin, read-out: hGCGR EC50, nM (SEM, n)) [nM]	EC50 (hGCGR; cAMP, 0.1% bovine casein (no human serum albumin), read-out: hGCGR EC50, nM (SEM, n)) [nM]	Structure (SMILES)	Emax (hGIPR; HEK293, read-out: hGIPR Emax, % ± SEM, 0.1% bovine casein and 1.0% human serum albumin, 37° C., percent of maximal response to GIP(1-42)NH2) [%]	EC50 (hGIPR; hGIPR EC50, nM (SEM, n), 0.1% bovine casein and 1.0% human serum albumin) [nM]	EC50 (hGIPR; hGIPR EC50, nM (SEM, n), cAMP, 0.1% bovine casein (no human serum albumin)) [nM]	EC50 (hGLP-1R; hGLP-1R EC50, nM (SEM, n), cAMP, 0.1% bovine casein (no human serum albumin)) [nM]	EC50 (hGCGR; hGCGR EC50, nM (SEM, n), 0.1% bovine casein and 1.0% human serum albumin) [nM]	EC50 (hGCGR; hGCGR EC50, nM (SEM, n), cAMP, 0.1% bovine casein (no human serum albumin)) [nM]
1.54	0.0112	19.1	0.125	> 9950	> 9950	CCCCCCCCCCCC(=O)N[C@@H](CCC(=O)NCCOCCOCC(=O)NCCOCCOCC(=O)NCCCC[C@H](NC(=O)[C@H](CCCN)NC(=O)[C@H](CC(=O)O)NC(=O)[C@H](CC(C)C)NC(=O)[C@](C)(CC(C)C)NC(=O)[C@@H](NC(=O)[C@H](CO)NC(=O)[C@H](CCCCNC(=O)COCCOCCNC(=O)COCCOCCNC(=O)CC[C@H](NC(=O)CCCCCCCCCCC)C(=O)O)NC(=O)[C@H](CC(=O)O)NC(=O)[C@H](CO)NC(=O)[C@@H](NC(=O)[C@](C)(Cc1ccccc1F)NC(=O)[C@@H](NC(=O)CNC(=O)[C@H](CCC(=O)O)NC(=O)C(C)(C)NC(=O)[C@@H](N)Cc1ccc(O)cc1)[C@@H](C)O)[C@@H](C)O)[C@@H](C)CC)C(=O)N[C@@H](C)C(=O)N[C@@H](CCC(N)=O)C(=O)NC(C)(C)C(=O)N[C@@H](CCC(=O)O)C(=O)N[C@@](C)(Cc1ccccc1)C(=O)N[C@H](C(=O)N[C@H](CCC(=O)O)C(=O)N[C@@](C)(Cc1ccc(O)cc1)C(=O)N[C@@H](CC(C)C)C(=O)N[C@H](C(=O)N[C@@H](CCC(=O)O)C(=O)NCC(=O)NCC(N)=O)[C@@H](C)CC)[C@@H](C)CC)C(=O)O [Example 297] (H-Y[Aib]EGT[αMePhe(2-F)]TSDK([AEEA-AEEA-γGlu-Lauroyl])SI[αMeL]LD[Orn]K([AEEA-AEEA-γGlu-Lauroyl])AQ[Aib]E[αMeF]I[dE][αMeY]LIEGG-NH2)	–	–	–	–	–	–
–	–	–	–	–	–	CC[C@H](C)[C@H](NC(=O)[C@H](CCCN)NC(=O)[C@H](CC(=O)O)NC(=O)[C@H](CC(C)C)NC(=O)[C@](C)(CC(C)C)NC(=O)[C@@H](NC(=O)[C@](C)(CO)NC(=O)[C@@H](NC(=O)[C@H](CC(=O)O)NC(=O)[C@H](CO)NC(=O)[C@@H](NC(=O)[C@](C)(Cc1ccccc1F)NC(=O)[C@@H](NC(=O)CNC(=O)[C@H](CCC(=O)O)NC(=O)C(C)(C)NC(=O)[C@@H](N)Cc1ccc(O)cc1)[C@@H](C)O)[C@@H](C)O)C(C)C)[C@@H](C)CC)C(=O)N[C@@H](C)C(=O)N[C@@H](CCC(N)=O)C(=O)NC(C)(C)C(=O)N[C@@H](CCC(=O)O)C(=O)N[C@@H](Cc1ccccc1)C(=O)N[C@H](C(=O)N[C@@H](CCCCNC(=O)COCCOCCNC(=O)COCCOCCNC(=O)CC[C@H](NC(=O)CCCCCCCCCOc1ccc(C(=O)O)cc1)C(=O)O)C(=O)N[C@@](C)(Cc1ccc(O)cc1)C(=O)N[C@@H](CC(C)C)C(=O)N[C@H](C(=O)N[C@@H](CCCCNC(=O)COCCOCCNC(=O)COCCOCCNC(=O)CC[C@H](NC(=O)CCCCCCCCCOc1ccc(C(=O)O)cc1)C(=O)O)C(=O)NCC(=O)NCC(=O)N1CCC[C@H]1C(=O)N[C@@H](CO)C(=O)N[C@@H](CO)C(=O)NCC(=O)N[C@@H](C)C(=O)N1CCC[C@H]1C(=O)N1CCC[C@H]1C(=O)N1CCC[C@H]1C(=O)N[C@@H](CO)C(N)=O)[C@@H](C)CC)[C@@H](C)CC [Example 309]	95.3	6.08	0.0212	0.527	> 9950	> 9950
